# System: HCV replicon I389luc-ubi-neo/NS3-3'/5.1
# Test: Anti-HCV replicon assay (luciferase activity) in Huh-5-2 cells
# Type: cell-based, Hepatitis C virus
# Conditions: Hepatitis C virus, Huh-5-2, 72 h, concentration required to inhibit luciferase activity in the replicon system by 50%
# Method: Cells were seeded at a density of 7000 cells per well in 96 well View Plate™ (Packard) in medium containing the same components as described above, except for G418. Cells were allowed to adhere and proliferate for 24 hr. At that time, culture medium was removed and serial dilutions of the test compounds were added in culture medium lacking G418. Interferon alfa 2a (500 IU) was included as a positive control. Plates were further incubated at 37° C. and 5% CO2 for 72 hours. Replication of the HCV replicon in Huh-5 cells results in luciferase activity in the cells. Luciferase activity is measured by adding 50 μl of 1×Glo-lysis buffer (Promega) for 15 minutes followed by 50 ul of the Steady-Glo Luciferase assay reagent (Promega). Luciferase activity is measured with a luminometer and the signal in each individual well is expressed as a percentage of the untreated cultures. […] Instead the density of the culture is measured by means of the MTS method (Promega).
row,Compound,IC50 [µg/mL]
1,"COc1cccc(NC(=O)C2c3ccccc3C(=O)N(CCN(C)C)C2c2cccs2)c1 (stereo not drawn) [C15, 2-(2-(Dimethylamino)ethyl)-N-(3-methoxyphenyl)-1-oxo-3-(thiophen-2-yl)-1,2,3,4-tetrahydroisoquinoline-4-carboxamide]",11.8
2,"COCCN1C(=O)c2cc(I)ccc2C(C(=O)Nc2cccc(OC)c2)C1c1cccs1 (stereo not drawn) [C56, 7-Iodo-2-(2-methoxyethyl)-N-(3-methoxyphenyl)-1-oxo-3-(thiophen-2-yl)-1,2,3,4-tetrahydroisoquinoline-4-carboxamide]",0.98
3,"COCCN1C(=O)c2ccccc2C(C(=O)Nc2cccc(C)c2)C1c1cccs1 (stereo not drawn) [C85, 2-(2-methoxyethyl)-1-oxo-3-(thiophen-2-yl)-N-m-tolyl-1,2,3,4-tetrahydroisoquinoline-4-carboxamide]",0.18
4,"COCCN1C(=O)c2ccccc2C(C(=O)Nc2ccc(CN3CCOCC3)cc2)C1c1cccs1 (stereo not drawn) [C188, 2-(2-methoxyethyl)-N-(4-(morpholinomethyl)phenyl)-1-oxo-3-(thiophen-2-yl)-1,2,3,4-tetrahydroisoquinoline-4-carboxamide]",0.1
5,"COCCN1C(=O)c2ccccc2C(C(=O)Nc2ccc3nccnc3c2)C1c1cccs1 (stereo not drawn) [C171, 2-(2-methoxyethyl)-1-oxo-N-(quinoxalin-6-yl)-3-(thiophen-2-yl)-1,2,3,4-tetrahydroisoquinoline-4-carboxamide]",0.12
6,"COCCn1c(-c2ccco2)c(C(=O)Nc2cccc(OC)c2)c2ccccc2c1=O [C38, 3-(furan-2-yl)-2-(2-methoxyethyl)-N-(3-methoxyphenyl)-1-oxo-1,2-dihydroisoquinoline-4-carboxamide]",41.4
7,"COCCN1C(=O)c2ccccc2C(C(=O)Nc2ccc(-n3nc(C)cc3C)cc2)C1c1cccs1 (stereo not drawn) [C201, N-(4-(3,5-dimethyl-1H-pyrazol-1-yl)phenyl)-2-(2-methoxyethyl)-1-oxo-3-(thiophen-2-yl)-1,2,3,4-tetrahydroisoquinoline-4-carboxamide]",0.078
8,"COCCN1C(=O)c2ccccc2C(C(=O)Nc2ccc3scnc3c2)C1c1cccs1 (stereo not drawn) [C164, N-(benzo[d]thiazol-5-yl)-2-(2-methoxyethyl)-1-oxo-3-(thiophen-2-yl)-1,2,3,4-tetrahydroisoquinoline-4-carboxamide]",0.13
9,"COc1cccc(NC(=O)C2c3ccccc3C(=O)N(Cc3ccco3)C2c2cccs2)c1 (stereo not drawn) [C4, 2-(Furan-2-ylmethyl)-N-(3-methoxyphenyl)-1-oxo-3-(thiophen-2-yl)-1,2,3,4-tetrahydroisoquinoline-4-carboxamide]",41.5
10,"COCCN1C(=O)c2ccccc2C(C(=O)Nc2ccc3occc3c2)C1c1cccs1 (stereo not drawn) [C195, N-(benzofuran-5-yl)-2-(2-methoxyethyl)-1-oxo-3-(thiophen-2-yl)-1,2,3,4-tetrahydroisoquinoline-4-carboxamide]",0.13
11,"COCCN1C(=O)c2ccccc2C(C(=O)Nc2cccc(OC)c2)C1c1ccc(C)s1 (stereo not drawn) [C12, 2-(2-Methoxyethyl)-N-(3-methoxyphenyl)-3-(5-methylthiophen-2-yl)-1-oxo-1,2,3,4-tetrahydroisoquinoline-4-carboxamide]",1.2
12,"COCCN1C(=O)c2ccccc2C(COCc2ccccc2)C1c1cccs1 (stereo not drawn) [C76, 4-(benzyloxymethyl)-2-(2-methoxyethyl)-3-(thiophen-2-yl)-3,4-dihydroisoquinolin-1(2H)-one]",22
13,"COCCN1C(=O)c2ccccc2C(C(=O)Nc2nc(-c3ccccc3)ns2)C1c1cccs1 (stereo not drawn) [C194, 2-(2-methoxyethyl)-1-oxo-N-(3-phenyl-1,2,4-thiadiazol-5-yl)-3-(thiophen-2-yl)-1,2,3,4-tetrahydroisoquinoline-4-carboxamide]",0.019
14,"COCCN1C(=O)c2ccccc2C(C(=O)Nc2ccc(Cl)cn2)C1c1cccs1 (stereo not drawn) [C223, N-(5-chloropyridin-2-yl)-2-(2-methoxyethyl)-1-oxo-3-(thiophen-2-yl)-1,2,3,4-tetrahydroisoquinoline-4-carboxamide]",1
15,"COCCN1C(=O)c2ccccc2C(C(=O)Nc2ccc3c(c2)S(=O)(=O)C=C3)C1c1cccs1 (stereo not drawn) [C198, N-(1,1-dioxobenzo[b]thiophen-6-yl)-2-(2-methoxyethyl)-1-oxo-3-(thiophen-2-yl)-1,2,3,4-tetrahydroisoquinoline-4-carboxamide]",4
16,"COCCN1C(=O)c2ccccc2C(C(=O)Nc2onc(C)c2C)C1c1cccs1 (stereo not drawn) [C220, N-(3,4-dimethylisoxazol-5-yl)-2-(2-methoxyethyl)-1-oxo-3-(thiophen-2-yl)-1,2,3,4-tetrahydroisoquinoline-4-carboxamide]",2.67
17,"CCC1C(C(=O)Nc2cccc(OC)c2)c2ccccc2C(=O)N1CCOC (stereo not drawn) [C58, 3-Ethyl-2-(2-methoxyethyl)-N-(3-methoxyphenyl)-1-oxo-1,2,3,4-tetrahydroisoquinoline-4-carboxamide]",1.81

row,Compound,IC50 [µg/mL]
1,"COCCN1C(=O)c2ccccc2C(C(=O)Nc2ccc(N3CCOCC3)cc2)C1c1cccs1 (stereo not drawn) [C121, 2-(2-methoxyethyl)-N-(4-morpholinophenyl)-1-oxo-3-(thiophen-2-yl)-1,2,3,4-tetrahydroisoquinoline-4-carboxamide]",1.06
2,"COCCN1C(=O)c2ccccc2C(C(=O)Nc2cc(C3CC3)nn2C)C1c1cccs1 (stereo not drawn) [C197, N-(3-cyclopropyl-1-methyl-1H-pyrazol-5-yl)-2-(2-methoxyethyl)-1-oxo-3-(thiophen-2-yl)-1,2,3,4-tetrahydroisoquinoline-4-carboxamide]",4
3,"COCCN1C(=O)c2ccccc2C(C(=O)Nc2cccc(OC)c2)C1c1cc2ccccc2s1 (stereo not drawn) [C27, 3-(Benzo[b]thiophen-2-yl)-2-(2-methoxyethyl)-N-(3-methoxyphenyl)-1-oxo-1,2,3,4-tetrahydroisoquinoline-4-carboxamide]",17.4
4,"COCCN1C(=O)c2ccccc2C(C(=O)Nc2cccc(OC)c2)C1c1cccn1C (stereo not drawn) [C106, 2-(2-methoxyethyl)-N-(3-methoxyphenyl)-3-(1-methyl-1H-pyrrol-2-yl)-1-oxo-1,2,3,4-tetrahydroisoquinoline-4-carboxamide]",44.4
5,"COCCN1C(=O)c2cccc(F)c2C(C(=O)Nc2cccc(OC)c2)C1c1cccs1 (stereo not drawn) [C61, 5-Fluoro-2-(2-methoxyethyl)-N-(3-methoxyphenyl)-1-oxo-3-(thiophen-2-yl)-1,2,3,4-tetrahydroisoquinoline-4-carboxamide]",0.22
6,"COCCN1C(=O)c2ccccc2C(C(=O)Nc2cccc(-c3cnco3)c2)C1c1cccs1 (stereo not drawn) [C210, 2-(2-methoxyethyl)-N-(3-(oxazol-5-yl)phenyl)-1-oxo-3-(thiophen-2-yl)-1,2,3,4-tetrahydroisoquinoline-4-carboxamide]",0.072
7,"COCCN1C(=O)c2ccccc2C(C(=O)Nc2ccc(Cl)cc2N)C1c1cccs1 (stereo not drawn) [C144, N-(2-amino-4-chlorophenyl)-2-(2-methoxyethyl)-1-oxo-3-(thiophen-2-yl)-1,2,3,4-tetrahydroisoquinoline-4-carboxamide]",5.16
8,"COCCN1C(=O)c2ccccc2C(C(=O)Nc2ccc(C(C)C)cc2)C1c1cccs1 (stereo not drawn) [C165, N-(4-isopropylphenyl)-2-(2-methoxyethyl)-1-oxo-3-(thiophen-2-yl)-1,2,3,4-tetrahydroisoquinoline-4-carboxamide]",0.4
9,"COCCN1C(=O)c2ccccc2C(C(=O)Nc2ccc(F)c(Cl)c2)C1c1cccs1 (stereo not drawn) [C94, N-(3-chloro-4-fluorophenyl)-2-(2-methoxyethyl)-1-oxo-3-(thiophen-2-yl)-1,2,3,4-tetrahydroisoquinoline-4-carboxamide]",0.25
10,"COCCN1C(=O)c2c(F)ccc(F)c2C(C(=O)Nc2cccc(OC)c2)C1c1cccs1 (stereo not drawn) [C91, 5,8-difluoro-2-(2-methoxyethyl)-N-(3-methoxyphenyl)-1-oxo-3-(thiophen-2-yl)-1,2,3,4-tetrahydroisoquinoline-4-carboxamide]",0.32
11,"COCCN1C(=O)c2ccccc2C(C(=O)Nc2ccc(Oc3ccccc3)nc2)C1c1cccs1 (stereo not drawn) [C158, 2-(2-methoxyethyl)-1-oxo-N-(6-phenoxypyridin-3-yl)-3-(thiophen-2-yl)-1,2,3,4-tetrahydroisoquinoline-4-carboxamide]",0.04
12,"COCCN1C(=O)c2c(C)cccc2C(C(=O)Nc2cccc(OC)c2)C1c1cccs1 (stereo not drawn) [C42, 2-(2-Methoxyethyl)-N-(3-methoxyphenyl)-8-methyl-1-oxo-3-(thiophen-2-yl)-1,2,3,4-tetrahydroisoquinoline-4-carboxamide]",0.5
13,"CCN1CCCC1CN1C(=O)c2ccccc2C(C(=O)Nc2cccc(OC)c2)C1c1cccs1 (stereo not drawn) [C67, 2-((1-ethylpyrrolidin-2-yl)methyl)-N-(3-methoxyphenyl)-1-oxo-3-(thiophen-2-yl)-1,2,3,4-tetrahydroisoquinoline-4-carboxamide]",10.4
14,"COCCN1C(=O)c2ccccc2C(C(=O)Nc2cccc(OC)c2)C1c1ccnn1C (stereo not drawn) [C105, 2-(2-methoxyethyl)-N-(3-methoxyphenyl)-3-(1-methyl-1H-pyrazol-5-yl)-1-oxo-1,2,3,4-tetrahydroisoquinoline-4-carboxamide]",50.5
15,"COCCN1C(=O)c2ccccc2C(C(=O)Nc2nc(C)c(C)s2)C1c1cccs1 (stereo not drawn) [C156, N-(4,5-dimethylthiazol-2-yl)-2-(2-methoxyethyl)-1-oxo-3-(thiophen-2-yl)-1,2,3,4-tetrahydroisoquinoline-4-carboxamide]",37.4
16,"COc1cccc(NC(=O)C2c3ccccc3C(=O)N(CC3CCCCC3)C2c2cccs2)c1 (stereo not drawn) [C22, 2-(Cyclohexylmethyl)-N-(3-methoxyphenyl)-1-oxo-3-(thiophen-2-yl)-1,2,3,4-tetrahydroisoquinoline-4-carboxamide]",4.09

# From US20110224208A1, “NOVEL INHIBITORS OF FLAVIVIRUS REPLICATION” (KATHOLIEKE UNIVERSITEIT LEUVEN, K.U. LEUVEN R&D, priority 2008, published 2011)
